Among the data in patent US4321386A, “Quaternary piperidinium halides” (Mead Johnson & Company, priority 1981, dated 1982) are ED50, LD50 and TD50 values, retold here.

Data set [1] deals with Ventricular arrhythmia produced in mice by chloroform inhalation. Kind of data set: Chloroform induced arrhythmia test in the mouse. The class given is in vivo. Particulars: inhaled or nasal, 10 animals per dose, read-out: Antiarrhythmic Activity Mouse ED50. An excerpt:
^(2) Ventricular arrhythmia produced in mice by chloroform inhalation
10 animals per dose (Lawson, J. W., J. Pharmacol. Exp. Therap., 160, 22

Data set [2] can be described thus: Oral toxicity testing in mice (ALD50, ATD50). The note with it: mouse, in vivo. On the procedure:
^(1) Various oral doses of from 5 mg/kg to 2000 mg/kg are given to 2
mice each; ALD50 is the approximate lethal dose for half the animals
ATD50 is the approximate lowest dose where signs of physiologic or […]

[3] abbreviates: mice, oral, approximate lethal dose for half the animals, read-out: Toxicity ALD50.
The mark [4] stands for this setting: mice, oral, approximate lowest dose where signs of physiologic or neurologic deficit appear, read-out: Toxicity ATD50.

Read-outs that look alike come from different tables or passages of the source. A value given as a limit tells only on which side of the number the result lay.

For orientation: ED50 means the dose at which the effect has come halfway, by size or by number of responders. Consider `COc1ccc(C(=O)Nc2ccccc2CCC2CCCC[N+]2(C)Cc2ccccc2)cc1` (stereo not drawn) [IIb, 2-[2--[2-[(4-Methoxybenzoyl)amino]phenyl]ethyl]-1-methyl-1-(phenylmethyl)piperidinium Bromide Hydrate], for which the median effective dose (ED50) in data set [1] stood at 19 mg/kg. In data set [2] (po), this compound displayed an LD50 above 1000 mg/kg and a TD50 of 125 to 250 mg/kg.
`COc1ccc(C(=O)Nc2ccccc2CCC2CCCC[N+]2(C)C)cc1.[I-]` (stereo not drawn) [IIa, 2-[2-[2-[(4-Methoxybenzoyl)amino]phenyl]ethyl]-1,1-dimethylpiperidinium Iodide]: in data set [1], the 50% effective dose (ED50) was 30.5 mg/kg. In data set [2] (setting [3]), the LD50 is above 2000 mg/kg. The TD50 in data set [2] (setting [4]) is 250 mg/kg.
For the compound `COc1ccc(C(=O)Nc2ccccc2CCC2CCCCN2C)cc1` (stereo not drawn) [I, reference compound], the ED50 in data set [1] lay in the range of 7 to 15 mg/kg. Also, the LD50 in data set [2] (setting [3]) is 50 to 100 mg/kg. Besides, in data set [2] (setting [4]), the TD50 is 5 to 10 mg/kg.
